The values below come from patent US9637483B2, “Heterocyclic compound” (TAKEDA PHARMACEUTICAL COMPANY LIMITED, priority 2013, dated 2017).

Holding throughout (format): biochemical
For assay [1], the target named is T1, TYK2 (Homo sapiens, UniProt P29597).
T1 construct: purchased Invitrogen
As to the kind of experiment: TYK2 enzyme inhibition test (LANCE method). To be noted: 1 μM test compound; for inhibition at 1 µM: read-out: TYK2 enzyme inhibitory activity (%, 1 μM). The protocol: (§1) TYK2 enzyme inhibitory activity of test compounds was measured by the LANCE method (PerkinElmer). First, a test compound diluted with assay buffer (50 mM HEPES (pH 7.5), 10 mM MgCl2, 1 mM EGTA, 2 mM DTT, 0.01% Tween20, 0.01% BSA) was added to a 384-well plate by 2 μL each. Then, a TYK2 (Invitrogen) solution and a fluorescence-labeled peptide substrate (ULight-JAK1, PerkinElmer) solution diluted with assay buffer to 375 ng/mL and 300 nM, respectively, were added by 2 μL each. Then, an enzyme reaction was started by adding 2 μL each of ATP solution prepared with assay buffer to 30 μM. After the reaction at room temperature for 1 hr, Detection Buffer (PerkinElmer) prepared to contain 20 mM EDTA, 4 nM europium-labeled anti-phosphotyrosine antibody (PerkinElmer) was added by 6 μL each. After standing at room temperature for 1 hr, fluorescence intensity (excitation wavelength 340 nm, fluorescence wavelength 665 nm, delay time 100 microseconds) was measured by a plate reader, Envision (PerkinElmer). The inhibitory activity of each compound was calculated as a relative activity value to the fluorescence intensity of a well free of enzyme as 100% inhibition.
In general terms: Time-resolved FRET reads energy transfer from a long-lived donor to a nearby acceptor.

Assay [2] has as its target T2, JAK1 (Homo sapiens, UniProt P23458).
T2 construct: purchased Invitrogen
Description: JAK1 enzyme inhibition test (LANCE method). To be noted: 1 μM test compound; for inhibition at 1 µM: read-out: JAK1 enzyme inhibitory activity (%, 1 μM). Here is the method:
as §1, with “JAK1 enzyme” for “TYK2 enzyme”, “a JAK1” for “a TYK2”, “to 187.5” for “to 375”, “to 150” for “to 30”

For assay [3], the target named is T3, JAK2 (Homo sapiens, UniProt O60674).
T3 construct: purchased Invitrogen
As to the kind of experiment: JAK2 enzyme inhibition test (LANCE method). To be noted: 1 μM test compound; for inhibition at 1 µM: read-out: JAK2 enzyme inhibitory activity (%, 1 μM). Here is the method:
as §1, with “JAK2 enzyme” for “TYK2 enzyme”, “a JAK2” for “a TYK2”, “to 6” for “to 375”, “to 45” for “to 30”

Assay [4] deals with T4, JAK3 (Homo sapiens, UniProt P52333).
T4 construct: purchased Invitrogen
T4 sequence (P52333 1-1124): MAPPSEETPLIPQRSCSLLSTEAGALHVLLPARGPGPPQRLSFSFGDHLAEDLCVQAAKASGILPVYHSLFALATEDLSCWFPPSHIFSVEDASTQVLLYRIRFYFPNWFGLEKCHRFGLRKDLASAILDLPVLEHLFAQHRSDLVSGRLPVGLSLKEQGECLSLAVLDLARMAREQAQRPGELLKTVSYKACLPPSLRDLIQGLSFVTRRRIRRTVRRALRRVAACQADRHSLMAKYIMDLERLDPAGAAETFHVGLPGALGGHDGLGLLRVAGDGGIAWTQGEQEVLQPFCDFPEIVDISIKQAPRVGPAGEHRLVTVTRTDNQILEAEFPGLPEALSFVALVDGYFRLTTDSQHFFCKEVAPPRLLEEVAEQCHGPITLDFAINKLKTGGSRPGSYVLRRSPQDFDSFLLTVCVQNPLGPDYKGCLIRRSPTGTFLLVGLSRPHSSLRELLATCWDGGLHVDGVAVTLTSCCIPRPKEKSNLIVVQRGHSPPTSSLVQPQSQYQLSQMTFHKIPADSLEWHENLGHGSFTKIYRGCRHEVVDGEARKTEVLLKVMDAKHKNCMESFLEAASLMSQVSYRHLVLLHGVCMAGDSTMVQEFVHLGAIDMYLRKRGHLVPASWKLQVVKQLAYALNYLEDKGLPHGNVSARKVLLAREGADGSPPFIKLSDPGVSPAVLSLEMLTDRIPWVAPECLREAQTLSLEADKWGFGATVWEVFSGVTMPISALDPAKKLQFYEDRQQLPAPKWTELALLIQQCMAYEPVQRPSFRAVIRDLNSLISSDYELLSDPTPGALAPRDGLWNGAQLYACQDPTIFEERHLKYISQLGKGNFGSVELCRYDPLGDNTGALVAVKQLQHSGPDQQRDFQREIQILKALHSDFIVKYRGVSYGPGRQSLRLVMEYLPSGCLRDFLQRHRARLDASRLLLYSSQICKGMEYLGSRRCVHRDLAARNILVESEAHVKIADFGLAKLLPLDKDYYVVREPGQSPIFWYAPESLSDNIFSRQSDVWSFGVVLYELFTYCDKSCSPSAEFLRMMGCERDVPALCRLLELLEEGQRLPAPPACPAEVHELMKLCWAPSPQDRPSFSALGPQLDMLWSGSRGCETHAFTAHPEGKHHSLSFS
As to the kind of experiment: JAK3 enzyme inhibition test (LANCE method). The following applies: 1 μM test compound; for inhibition at 1 µM: read-out: JAK3 enzyme inhibitory activity (%, 1 μM). Here is the method:
as §1, with “JAK3 enzyme” for “TYK2 enzyme”, “a JAK3” for “a TYK2”, “to 12” for “to 375”, “to 15” for “to 30”

T1 sequence (P29597 whole entry): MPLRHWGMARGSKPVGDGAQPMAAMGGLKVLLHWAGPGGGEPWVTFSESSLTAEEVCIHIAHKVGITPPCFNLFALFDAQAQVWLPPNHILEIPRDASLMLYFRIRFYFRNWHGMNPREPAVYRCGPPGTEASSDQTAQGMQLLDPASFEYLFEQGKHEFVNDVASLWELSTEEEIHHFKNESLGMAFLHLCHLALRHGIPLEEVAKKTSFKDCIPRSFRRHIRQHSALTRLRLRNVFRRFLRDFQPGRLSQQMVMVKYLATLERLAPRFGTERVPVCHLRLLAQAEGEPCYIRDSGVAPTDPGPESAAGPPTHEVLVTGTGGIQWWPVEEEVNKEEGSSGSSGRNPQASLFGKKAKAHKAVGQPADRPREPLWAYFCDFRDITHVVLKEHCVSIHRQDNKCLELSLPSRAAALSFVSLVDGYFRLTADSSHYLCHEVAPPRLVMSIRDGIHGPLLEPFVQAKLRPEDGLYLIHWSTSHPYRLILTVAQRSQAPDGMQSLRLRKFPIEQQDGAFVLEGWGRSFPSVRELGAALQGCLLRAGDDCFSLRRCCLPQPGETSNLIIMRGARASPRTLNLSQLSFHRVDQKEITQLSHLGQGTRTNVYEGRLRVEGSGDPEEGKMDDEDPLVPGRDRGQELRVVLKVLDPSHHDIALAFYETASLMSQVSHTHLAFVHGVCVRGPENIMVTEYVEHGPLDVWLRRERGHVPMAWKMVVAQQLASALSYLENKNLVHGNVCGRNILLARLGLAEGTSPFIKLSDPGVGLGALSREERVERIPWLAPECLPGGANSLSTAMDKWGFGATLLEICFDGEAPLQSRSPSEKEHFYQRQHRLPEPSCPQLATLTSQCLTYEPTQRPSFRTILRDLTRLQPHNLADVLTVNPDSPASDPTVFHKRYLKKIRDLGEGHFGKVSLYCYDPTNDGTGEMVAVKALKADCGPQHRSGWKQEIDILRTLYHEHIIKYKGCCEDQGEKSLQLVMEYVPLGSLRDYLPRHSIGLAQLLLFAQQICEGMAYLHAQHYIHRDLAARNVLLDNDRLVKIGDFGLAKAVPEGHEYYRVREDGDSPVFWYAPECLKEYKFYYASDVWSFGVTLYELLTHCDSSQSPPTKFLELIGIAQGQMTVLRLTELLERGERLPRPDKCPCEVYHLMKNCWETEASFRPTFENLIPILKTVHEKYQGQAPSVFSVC
T2 sequence (P23458 whole entry): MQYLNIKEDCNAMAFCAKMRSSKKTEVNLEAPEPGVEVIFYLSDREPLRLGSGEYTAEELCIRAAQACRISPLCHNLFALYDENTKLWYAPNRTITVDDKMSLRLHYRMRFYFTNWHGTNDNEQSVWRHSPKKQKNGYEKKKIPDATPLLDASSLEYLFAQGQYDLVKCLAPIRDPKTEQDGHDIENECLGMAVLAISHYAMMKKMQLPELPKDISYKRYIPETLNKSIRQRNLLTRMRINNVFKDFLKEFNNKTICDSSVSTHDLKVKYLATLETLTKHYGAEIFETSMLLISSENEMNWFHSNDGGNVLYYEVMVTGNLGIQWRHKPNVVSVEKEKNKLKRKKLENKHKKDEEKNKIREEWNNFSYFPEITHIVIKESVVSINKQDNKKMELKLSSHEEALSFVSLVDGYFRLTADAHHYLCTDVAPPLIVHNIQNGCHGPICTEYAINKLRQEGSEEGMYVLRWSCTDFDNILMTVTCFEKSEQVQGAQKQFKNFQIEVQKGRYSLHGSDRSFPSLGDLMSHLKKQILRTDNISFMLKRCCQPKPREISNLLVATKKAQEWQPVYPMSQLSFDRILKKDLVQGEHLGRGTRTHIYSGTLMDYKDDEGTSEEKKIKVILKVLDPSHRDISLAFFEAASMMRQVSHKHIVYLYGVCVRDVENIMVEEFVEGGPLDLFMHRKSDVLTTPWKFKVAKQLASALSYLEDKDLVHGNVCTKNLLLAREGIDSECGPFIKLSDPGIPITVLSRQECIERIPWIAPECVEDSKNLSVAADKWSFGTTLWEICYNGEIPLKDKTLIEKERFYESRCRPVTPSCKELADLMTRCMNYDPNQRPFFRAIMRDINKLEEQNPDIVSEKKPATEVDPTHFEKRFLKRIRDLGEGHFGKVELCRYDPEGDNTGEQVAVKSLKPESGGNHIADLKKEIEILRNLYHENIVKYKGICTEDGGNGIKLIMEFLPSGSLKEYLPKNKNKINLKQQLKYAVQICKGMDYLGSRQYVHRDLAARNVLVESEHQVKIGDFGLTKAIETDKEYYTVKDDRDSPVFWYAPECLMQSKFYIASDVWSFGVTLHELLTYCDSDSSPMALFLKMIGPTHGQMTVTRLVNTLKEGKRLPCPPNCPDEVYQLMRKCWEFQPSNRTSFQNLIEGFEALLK
T3 sequence (O60674 whole entry): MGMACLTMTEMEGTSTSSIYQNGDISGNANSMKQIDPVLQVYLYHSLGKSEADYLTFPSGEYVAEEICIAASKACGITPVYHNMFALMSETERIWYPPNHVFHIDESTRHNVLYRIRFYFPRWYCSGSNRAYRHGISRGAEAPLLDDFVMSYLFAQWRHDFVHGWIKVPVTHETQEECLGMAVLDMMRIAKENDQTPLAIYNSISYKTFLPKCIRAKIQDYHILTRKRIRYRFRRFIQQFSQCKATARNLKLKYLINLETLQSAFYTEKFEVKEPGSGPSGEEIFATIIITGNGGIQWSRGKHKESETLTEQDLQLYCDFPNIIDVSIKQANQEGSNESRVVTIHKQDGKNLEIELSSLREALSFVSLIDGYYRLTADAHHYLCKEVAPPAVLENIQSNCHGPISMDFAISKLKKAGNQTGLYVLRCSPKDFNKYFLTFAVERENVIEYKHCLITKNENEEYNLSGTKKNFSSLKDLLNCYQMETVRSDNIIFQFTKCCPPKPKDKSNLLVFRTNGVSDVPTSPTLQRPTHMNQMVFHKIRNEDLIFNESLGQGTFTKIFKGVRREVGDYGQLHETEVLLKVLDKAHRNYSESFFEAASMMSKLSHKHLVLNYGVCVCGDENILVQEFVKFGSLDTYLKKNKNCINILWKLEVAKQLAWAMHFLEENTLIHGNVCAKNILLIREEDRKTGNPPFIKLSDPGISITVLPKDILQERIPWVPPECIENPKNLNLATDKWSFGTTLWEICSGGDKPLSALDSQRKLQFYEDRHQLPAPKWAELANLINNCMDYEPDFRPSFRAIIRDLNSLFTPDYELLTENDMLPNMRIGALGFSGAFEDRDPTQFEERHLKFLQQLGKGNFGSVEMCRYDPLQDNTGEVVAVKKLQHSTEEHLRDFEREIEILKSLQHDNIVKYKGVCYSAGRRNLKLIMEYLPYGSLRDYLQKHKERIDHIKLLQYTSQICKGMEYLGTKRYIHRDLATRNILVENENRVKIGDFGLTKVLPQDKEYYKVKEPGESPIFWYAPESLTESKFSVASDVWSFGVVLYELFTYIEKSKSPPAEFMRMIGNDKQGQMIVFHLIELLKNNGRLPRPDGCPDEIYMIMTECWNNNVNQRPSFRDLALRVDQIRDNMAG

Consider `CN(C)C[C@H]1CCCN1c1cc(-c2cn(C(C3CC3)C3CC3)c(=O)c3c(N)n[nH]c23)nn1C` [Example 145, 3-amino-5-(dicyclopropylmethyl)-7-(5-((2R)-2-((dimethylamino)methyl)pyrrolidin-1-yl)-1-methyl-1H-pyrazol-3-yl)-1,5-dihydro-4H-pyrazolo[4,3-c]pyridin-4-one], for which the inhibition at 1 µM in assay [1] came to 100%; in assay [2], 89%; in assay [3], 98%; in assay [4], 99%.

Consider `COC1(c2cc(-c3cn(C(C4CC4)C4CC4)c(=O)c4c(N)n[nH]c34)nn2C)CN(S(=O)(=O)C(C)C)C1` [Example 90, 3-amino-5-(dicyclopropylmethyl)-7-(5-(1-(isopropylsulfonyl)-3-methoxyazetidin-3-yl)-1-methyl-1H-pyrazol-3-yl)-1,5-dihydro-4H-pyrazolo[4,3-c]pyridin-4-one], for which the inhibition at 1 µM in assay [1] is 100%; in assay [2] it was 96%; in assay [3], 99%; in assay [4], 99%.

Take `CC(C)[C@H](C)n1cc(-c2cc(N3CCC(C)(O)C3)n(C)n2)c2[nH]nc(N)c2c1=O` (stereo partly drawn) [Example 63, 3-amino-7-(5-(3-hydroxy-3-methylpyrrolidin-1-yl)-1-methyl-1H-pyrazol-3-yl)-5-((2S)-3-methylbutan-2-yl)-1,5-dihydro-4H-pyrazolo[4,3-c]pyridin-4-one]: the “TYK2 enzyme inhibitory activity (%, 1 μM)” value in assay [1] (1 µM) is 99%. The “JAK1 enzyme inhibitory activity (%, 1 μM)” value in assay [2] is on record as 96%. Further, the “JAK2 enzyme inhibitory activity (%, 1 μM)” value in assay [3] worked out at 99%. Further, the “JAK3 enzyme inhibitory activity (%, 1 μM)” value in assay [4] is on record as 100%.

As for `COC1(c2cc(-c3cn(C(C#N)C(C)C)c(=O)c4c(N)n[nH]c34)nn2C)CCC(F)(F)CC1` (stereo not drawn) [Example 139, 2-(3-amino-7-(5-(4,4-difluoro-1-methoxycyclohexyl)-1-methyl-1H-pyrazol-3-yl)-4-oxo-1,4-dihydro-5H-pyrazolo[4,3-c]pyridin-5-yl)-3-methylbutanenitrile], in assay [1] (1 µM), the “TYK2 enzyme inhibitory activity (%, 1 μM)” value is reported as 93%. Further, the “JAK1 enzyme inhibitory activity (%, 1 μM)” value in assay [2] turned out to be 32%. Besides, in assay [3], the “JAK2 enzyme inhibitory activity (%, 1 μM)” value was found to be 80%. The “JAK3 enzyme inhibitory activity (%, 1 μM)” value in assay [4] is 66%.

In the case of `CC(C)[C@H](C)n1cc(-c2cc(N3CCN4CCCC4C3)n(C)n2)c2[nH]nc(N)c2c1=O` (stereo partly drawn) [Example 62, 3-amino-7-(5-(hexahydropyrrolo[1,2-a]pyrazin-2 (H)-yl)-1-methyl-1H-pyrazol-3-yl)-5-((2S)-3-methylbutan-2-yl)-1,5-dihydro-4H-pyrazolo[4,3-c]pyridin-4-one], in assay [1], the “TYK2 enzyme inhibitory activity (%, 1 μM)” value is recorded as 99%. Also, in assay [2], the “JAK1 enzyme inhibitory activity (%, 1 μM)” value stood at 97%. Further, the “JAK2 enzyme inhibitory activity (%, 1 μM)” value in assay [3] is reported as 99%. In addition, in assay [4], the “JAK3 enzyme inhibitory activity (%, 1 μM)” value turned out to be 99%.

Turning to `Cc1cc(-c2cn(C(C3CC3)C3CC3)c(=O)c3c(N)n[nH]c23)nn1C` [Example 173, 3-amino-5-(dicyclopropylmethyl)-7-(1,5-dimethyl-1H-pyrazol-3-yl)-1,5-dihydro-4H-pyrazolo[4,3-c]pyridin-4-one], the inhibition at 1 µM in assay [1] is 98%; in assay [2], 98%; in assay [3] it was 96%; in assay [4], 99%.

Turning to `CC(C)[C@H](C)n1cc(-c2cc(C3=CCOCC3)n(C)n2)c2[nH]nc(N)c2c1=O` [Example 39, 3-amino-7-(5-(3,6-dihydro-2H-pyran-4-yl)-1-methyl-1H-pyrazol-3-yl)-5-((2S)-3-methylbutan-2-yl)-1,5-dihydro-4H-pyrazolo[4,3-c]pyridin-4-one], the inhibition at 1 µM came out at 100% in assay [1], 99% in assay [2], 99% in assay [3] and 100% in assay [4].

`CC(C)[C@H](C)n1cc(-c2cc(N3CCC(C(C)(C)O)CC3)n(C)n2)c2[nH]nc(N)c2c1=O` [Example 15, 3-amino-7-(5-(4-(2-hydroxypropan-2-yl)piperidin-1-yl)-1-methyl-1H-pyrazol-3-yl)-5-((2S)-3-methylbutan-2-yl)-1,5-dihydro-4H-pyrazolo[4,3-c]pyridin-4-one]: the inhibition at 1 µM is 100% in assay [1], 97% in assay [2], 99% in assay [3] and 100% in assay [4].

Turning to `Cn1nc(-c2cn(C(C3CC3)C3CC3)c(=O)c3c(N)n[nH]c23)cc1N1CC[C@H](O)C1` [Example 166, 3-amino-5-(dicyclopropylmethyl)-7-(5-((3S)-3-hydroxypyrrolidin-1-yl)-1-methyl-1H-pyrazol-3-yl)-1,5-dihydro-4H-pyrazolo[4,3-c]pyridin-4-one], the inhibition at 1 µM was found to be 101% in assay [1], 100% in assay [2], 99% in assay [3] and 100% in assay [4].
